# Molecular target: T1, p300 catalytic domain (Homo sapiens, UniProt Q09472)
# T1 construct: 40 ng/ml recombinant purified p300 catalytic domain (Millipore); purchased Millipore
# T1 sequence (Q09472 1287-1663 limits assumed): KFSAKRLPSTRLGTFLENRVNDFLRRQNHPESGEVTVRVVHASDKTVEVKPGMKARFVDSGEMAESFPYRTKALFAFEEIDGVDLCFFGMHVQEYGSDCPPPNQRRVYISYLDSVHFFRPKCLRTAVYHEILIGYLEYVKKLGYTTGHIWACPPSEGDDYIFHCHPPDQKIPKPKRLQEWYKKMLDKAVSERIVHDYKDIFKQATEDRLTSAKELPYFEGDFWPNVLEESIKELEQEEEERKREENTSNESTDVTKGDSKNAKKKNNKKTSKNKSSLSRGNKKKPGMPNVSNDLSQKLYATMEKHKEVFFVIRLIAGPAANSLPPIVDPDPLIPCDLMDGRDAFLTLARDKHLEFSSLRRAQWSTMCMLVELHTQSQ
# Assay: QD-FRET p300 HAT assay, inhibitor response
# Type: biochemical
# Details: 40 ng/ml p300 catalytic domain, 100 μM acetyl-CoA, 25 μM substrate peptide, 2 hr at 30° C.
# Description: p300 assay: In a final volume of 14 μl, 25 μM substrate peptide was incubated with 40 ng/ml recombinant purified p300 catalytic domain (Millipore) in the presence or absence of 100 μM acetyl-CoA (Sigma-Alrich) and different concentrations of anacardic acid in 50 mM Tris-HCl buffer (pH 8.0) containing 0.1% (w/v) BSA (reaction buffer) for 2 hr at 30° C. An aliquot of this reaction mixture was transferred to a 10 μl solution of 50 nM quantum dots and 300 nM Alexa Fluor 647-labelled anti-AcK antibody to achieve a peptide to Qdot ratio of 40:1 and the mixture allowed to incubate for 30 min at room temperature. Fluorescence intensity data were collected with […] on a SpectraMax M5 microplate reader (Molecular Devices) using a 400 nm excitation source.
# A synthetic peptide substrate for p300 containing an appending hexahistidine motif was exposed to p300 enzyme in the presence of acetyl-CoA to allow enzymatic acetylation of the peptide. […] This acetylation event was detected by means of an anti-acetyl lysine antibody labelled with a fluorescent dye, which binds selectively to the acetylated lysine residues of the quantum dot-bound peptide. […] This is indicated in the fluorescence spectra as a concomitant decrease in emission at 605 nm and enhanced emission at 670 nm from the Qdot and dye molecules respectively—see FIG. 8.
smiles,measurement,value
CCCCCCCCCCCCCCCc1cccc(O)c1C(=O)O [anacardic acid],effect of serial dilutions of inhibitor on dye-specific emission at 670 nm (energy transfer),dose-dependent decrease in dye-specific emission at 670 nm

# Reference: US20120070852A1, “ASSAY” (IMPERIAL INNOVATIONS LIMITED, priority 2008, published 2012)
